From patent publication US8835429B2, “Pyrimidine compounds, their use as mTOR kinase and Pl3 kinase inhibitors, and their syntheses” (Wyeth LLC, priority 2009, dated 2014)

Assays:
MDA468 = experiment: In vitro cell growth assay (MTS), MDA468; format: cell-based; conditions: 72 h, human breast line MDA468, three days after drug treatment, read-out: MDA IC50
Description: (§1) The cell lines used were human prostate lines LNCap and PC3MM2, human breast lines MDA468 and MCF7, human renal line HTB44 (A498), human colon line HCT116, and human ovarian line OVCAR3. Cells were plated in 96-well culture plates. One day following plating, the inhibitors were added to cells. Three days after drug treatment, viable cell densities were determined by metabolic conversion (by viable cells) of the dye MTS, a well-established cell proliferation assay. The assays were performed using an assay kit purchased from Promega Corp. (Madison, Wis.) following the protocol supplied with the kit. The MTS assay results were read in a 96-well plate reader by measuring absorbance at 490 nm. The effect of each treatment was calculated as percent of control growth relative to the vehicle-treated cells grown in the same culture plate.

LNCap = experiment: In vitro cell growth assay (MTS), LNCap; format: cell-based; conditions: LNCaP, 72 h, human prostate line, three days after drug treatment
Description: as §1

PI3K-alpha = PI3K-alpha (Homo sapiens, UniProt P42336); experiment: PI3K-alpha fluorescence polarization assay; format: biochemical; conditions: 20 μM PIP2, 25 μM ATP; read-out: PI3Kα IC50
PI3K-alpha, sequence (P42336 whole entry, species assumed): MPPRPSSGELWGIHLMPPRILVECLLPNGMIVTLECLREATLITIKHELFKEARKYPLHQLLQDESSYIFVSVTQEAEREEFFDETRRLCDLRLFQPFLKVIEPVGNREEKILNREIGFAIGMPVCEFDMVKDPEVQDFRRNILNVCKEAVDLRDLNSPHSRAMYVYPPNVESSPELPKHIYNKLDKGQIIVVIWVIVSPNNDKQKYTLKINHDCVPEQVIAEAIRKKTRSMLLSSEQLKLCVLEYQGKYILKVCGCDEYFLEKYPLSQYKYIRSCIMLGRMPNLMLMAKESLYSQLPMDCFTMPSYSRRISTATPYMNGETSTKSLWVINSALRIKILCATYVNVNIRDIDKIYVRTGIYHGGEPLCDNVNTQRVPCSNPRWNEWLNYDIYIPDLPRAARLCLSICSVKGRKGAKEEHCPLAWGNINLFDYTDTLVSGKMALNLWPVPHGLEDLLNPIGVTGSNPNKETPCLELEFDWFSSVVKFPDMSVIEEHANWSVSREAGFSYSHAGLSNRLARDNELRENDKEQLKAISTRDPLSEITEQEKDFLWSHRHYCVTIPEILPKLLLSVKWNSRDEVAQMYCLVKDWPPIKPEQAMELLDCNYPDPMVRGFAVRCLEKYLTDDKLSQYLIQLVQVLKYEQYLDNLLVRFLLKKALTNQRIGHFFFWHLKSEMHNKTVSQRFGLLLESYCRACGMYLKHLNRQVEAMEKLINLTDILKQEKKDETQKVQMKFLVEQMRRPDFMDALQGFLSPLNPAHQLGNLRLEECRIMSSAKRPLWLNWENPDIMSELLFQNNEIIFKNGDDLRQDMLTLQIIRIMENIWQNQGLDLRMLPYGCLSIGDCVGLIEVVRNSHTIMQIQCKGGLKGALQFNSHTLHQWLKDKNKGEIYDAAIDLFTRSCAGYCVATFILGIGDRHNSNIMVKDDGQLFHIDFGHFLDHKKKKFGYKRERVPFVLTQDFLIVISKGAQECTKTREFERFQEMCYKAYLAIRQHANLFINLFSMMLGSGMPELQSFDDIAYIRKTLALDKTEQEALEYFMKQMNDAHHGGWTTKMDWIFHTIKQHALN
PI3K-alpha, sequence (P27986 whole entry partner, species assumed): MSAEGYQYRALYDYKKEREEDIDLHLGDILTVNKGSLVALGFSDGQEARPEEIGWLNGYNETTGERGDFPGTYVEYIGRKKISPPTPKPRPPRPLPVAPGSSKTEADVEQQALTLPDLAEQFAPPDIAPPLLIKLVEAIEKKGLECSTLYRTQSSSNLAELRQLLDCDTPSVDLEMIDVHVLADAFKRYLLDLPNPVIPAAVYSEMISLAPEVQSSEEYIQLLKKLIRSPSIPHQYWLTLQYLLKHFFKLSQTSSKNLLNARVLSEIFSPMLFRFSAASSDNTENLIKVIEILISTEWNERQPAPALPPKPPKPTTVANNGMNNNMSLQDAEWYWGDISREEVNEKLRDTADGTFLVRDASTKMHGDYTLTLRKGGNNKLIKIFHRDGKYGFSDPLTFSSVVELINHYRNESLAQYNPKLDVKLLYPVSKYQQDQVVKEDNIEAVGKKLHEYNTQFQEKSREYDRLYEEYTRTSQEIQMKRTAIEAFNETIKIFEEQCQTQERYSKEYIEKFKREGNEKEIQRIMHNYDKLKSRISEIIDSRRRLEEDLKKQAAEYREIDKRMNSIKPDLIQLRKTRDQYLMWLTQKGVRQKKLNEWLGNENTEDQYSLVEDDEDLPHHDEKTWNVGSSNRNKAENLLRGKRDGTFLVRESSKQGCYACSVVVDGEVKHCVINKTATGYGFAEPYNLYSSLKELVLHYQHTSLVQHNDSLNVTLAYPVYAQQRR
Description: The reaction buffer was 20 mM HEPES, pH 7.5, 2 mM MgCl2, 0.05% CHAPS; and 0.01% βME (added fresh). The stop/detection buffer was 100 mM HEPES, pH 7.5, 4 mM EDTA, 0.05% CHAPS; ATP 20 mM in water; PIP2 (diC8, Echelon, Salt Lake City Utah cat #P-4508) 1 mM in water (MW=856.5). The GST-GRP was 1.75 mg/mL or 1.4 mg/mL in 10% glycerol. The red detector (TAMRA) was 2.5 μM. Nunc 384-well black polypropylene fluorescent plates were used for PI3K assays.
The assay is run by placing 5 μL of diluted enzyme per well, then 5 μL of diluted compound (or 9.5 μL enzyme then 0.5 μL compound in DMSO) is added and mixed. Then, 10 μL substrate is added to start the reaction. The samples are incubated 30-60 minutes, then the reaction is stopped by adding 20 μL stop/detector mix. PI3K is diluted with reaction buffer (e.g., 5 μL or 7.5 μL PI3K into 620 μL reaction buffer), and 5 μL of diluted enzyme is used per well. A 5 μL portion of reaction buffer or of drug diluted in buffer (e.g., 4 μL/100 so final DMSO is 1% in reaction) is added to each. Pipetting up and down mixes the samples. Alternatively, the enzyme can be diluted to 1215 μL. In this case 9.8 μL is added per well and 0.2 μL compound is added in DMSO.
To prepare 1 mL of substrate solution, 955 μL reaction buffer, 40 μL PIP2, and 2.5 μL ATP are mixed. 10 μL of substrate is added to each well to start the reaction. […] The stop/detector mix is prepared by mixing 4 μL red detector and 1.6 μL or 2.0 μL GST-GRP with 1 mL stop buffer, which results in 10 nM probe and 70 nM GST-GRP. 20 μL of the stop/detector mix is added to each well to stop the reaction. The plates are read after 30-90 minutes keeping the red probe solutions dark. For the zero time point, stop/detector mix is added to the enzyme just before adding substrate. For an extra control, stop/detector mix is added to buffer (no enzyme) and substrate or to just buffer (no substrate). […] The recommended reaction has 0.06 μL per 20 μL (0.015 μg/20 μL) or 0.01125 μg/15 μL or 0.75 μg/mL.
Plates are read on machines with filters for TAMRA. The units are mP with no enzyme controls reading app 190-220 mP units. Fully active enzyme reduces fluorescence polarization down to 70-100 mP after 30 minutes. An active compound raises the mP values halfway to control or to 120-150 mP units.

mTOR = mTOR (Homo sapiens, UniProt P42345); experiment: mTOR enzyme assay (DELFIA, purified FLAG-TOR, His6-S6K substrate); format: biochemical; design: FLAG; conditions: 100 μM ATP, 2 hours
mTOR, sequence (P42345 1360-2549 limits assumed): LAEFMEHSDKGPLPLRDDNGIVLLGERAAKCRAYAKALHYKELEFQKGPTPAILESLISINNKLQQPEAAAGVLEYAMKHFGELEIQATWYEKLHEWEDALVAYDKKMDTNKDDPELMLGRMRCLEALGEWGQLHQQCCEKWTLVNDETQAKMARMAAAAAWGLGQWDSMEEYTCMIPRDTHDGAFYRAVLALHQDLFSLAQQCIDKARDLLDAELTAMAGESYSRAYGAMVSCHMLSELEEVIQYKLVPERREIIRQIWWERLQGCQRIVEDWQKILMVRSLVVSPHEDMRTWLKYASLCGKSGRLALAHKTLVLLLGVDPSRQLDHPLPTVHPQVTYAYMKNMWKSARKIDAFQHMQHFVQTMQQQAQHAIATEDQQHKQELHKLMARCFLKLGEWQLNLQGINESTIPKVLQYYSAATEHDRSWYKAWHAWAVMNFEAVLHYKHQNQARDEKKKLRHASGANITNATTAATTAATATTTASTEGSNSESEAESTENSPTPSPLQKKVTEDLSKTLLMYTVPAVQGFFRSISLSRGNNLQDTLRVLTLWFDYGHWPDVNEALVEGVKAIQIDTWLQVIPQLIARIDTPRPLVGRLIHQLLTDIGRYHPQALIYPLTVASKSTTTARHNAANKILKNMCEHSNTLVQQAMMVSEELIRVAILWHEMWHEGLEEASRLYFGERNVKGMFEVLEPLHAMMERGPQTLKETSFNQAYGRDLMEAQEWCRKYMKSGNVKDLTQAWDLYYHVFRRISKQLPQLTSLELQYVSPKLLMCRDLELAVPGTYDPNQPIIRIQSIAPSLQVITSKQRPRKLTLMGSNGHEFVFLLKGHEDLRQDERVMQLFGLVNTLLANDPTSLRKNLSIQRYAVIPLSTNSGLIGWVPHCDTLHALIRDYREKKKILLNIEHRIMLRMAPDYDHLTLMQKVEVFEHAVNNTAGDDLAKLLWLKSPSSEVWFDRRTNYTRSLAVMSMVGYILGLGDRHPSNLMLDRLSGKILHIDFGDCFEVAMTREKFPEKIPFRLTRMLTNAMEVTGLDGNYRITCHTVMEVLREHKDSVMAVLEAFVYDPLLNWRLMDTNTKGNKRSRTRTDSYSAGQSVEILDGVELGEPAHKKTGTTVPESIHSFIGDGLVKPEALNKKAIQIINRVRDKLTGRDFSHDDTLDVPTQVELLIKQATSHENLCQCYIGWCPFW

SMILES	IC50 (MDA468) [nM]	IC50 (LNCap) [nM]	IC50 (PI3K-alpha) [nM]	IC50 (mTOR) [nM]
CC(C)Nc1cc(N2CC3CCC(C2)O3)nc(-c2ccc(NC(=O)Nc3ccc(N4CCN(C)CC4)cc3)cc2)n1 [1-(4-{4-[(1-methylethyl)amino]-6-(8-oxa-3-azabicyclo[3.2.1]oct-3-yl)pyrimidin-2-yl}phenyl)-3-[4-(4-methylpiperazin-1-yl)phenyl]urea]	50	13.4	212	4.17
CC(C)Nc1cc(N2CC3CCC(C2)O3)nc(-c2ccc(NC(=O)Nc3ccncc3)cc2)n1 [1-(4-{4-[(1-methylethyl)amino]-6-(8-oxa-3-azabicyclo[3.2.1]oct-3-yl)pyrimidin-2-yl}phenyl)-3-pyridin-4-ylurea]	310	51	140	0.785
CS(=O)(=O)Cc1cc(N2CC3CCC(C2)O3)nc(-c2ccc(NC(=O)Nc3ccc(N4CCNCC4)cc3)cc2)n1 [1-(4-{4-[(methylsulfonyl)methyl]-6-(8-oxa-3-azabicyclo[3.2.1]oct-3-yl)pyrimidin-2-yl}phenyl)-3-(4-piperazin-1-ylphenyl)urea]	110	90	242	3
CS(=O)(=O)Cc1cc(N2CC3CCC(C2)O3)nc(-c2ccc(NC(=O)Nc3ccccc3)cc2)n1 [1-(4-{4-[(methylsulfonyl)methyl]-6-(8-oxa-3-azabicyclo[3.2.1]oct-3-yl)pyrimidin-2-yl}phenyl)-3-phenylurea]	9	0.9	172	3
CS(=O)(=O)Cc1cc(N2CC3CCC(C2)O3)nc(-c2ccc(NC(=O)Nc3cccnc3)cc2)n1 [1-(4-{4-[(methylsulfonyl)methyl]-6-(8-oxa-3-azabicyclo[3.2.1]oct-3-yl)pyrimidin-2-yl}phenyl)-3-pyridin-3-ylurea]	170	195	341	1.02
CS(=O)(=O)Cc1cc(N2CC3CCC(C2)O3)nc(-c2ccc(NC(=O)Nc3ccncc3)cc2)n1 [1-(4-{4-[(methylsulfonyl)methyl]-6-(8-oxa-3-azabicyclo[3.2.1]oct-3-yl)pyrimidin-2-yl}phenyl)-3-pyridin-4-ylurea]	75	150	236	0.825
CN1CCN(c2ccc(NC(=O)Nc3ccc(-c4cc(N5CC6CCC(C5)O6)nc(N5CC6CCC(C5)O6)n4)cc3)cc2)CC1 [1-[4-(2,6-di-8-oxa-3-azabicyclo[3.2.1]oct-3-ylpyrimidin-4-yl)phenyl]-3-[4-(4-methylpiperazin-1-yl)phenyl]urea]	160	40	588	9.55
CNC(=O)Nc1ccc(-c2cc(N3CC4CCC(C3)O4)nc(N3CC4CCC(C3)O4)n2)cc1 [1-[4-(2,6-di-8-oxa-3-azabicyclo[3.2.1]oct-3-ylpyrimidin-4-yl)phenyl]-3-methylurea]	4200	1600	2490	20.5
O=C(Nc1ccncc1)Nc1ccc(-c2cc(N3CC4CCC(C3)O4)nc(N3CC4CCC(C3)O4)n2)cc1 [1-[4-(2,6-di-8-oxa-3-azabicyclo[3.2.1]oct-3-ylpyrimidin-4-yl)phenyl]-3-pyridin-4-ylurea]	380	130	137	2.45
CN1CCN(c2ccc(NC(=O)Nc3ccc(-c4nc(N5C6CCC5COC6)cc(N5C6CCC5COC6)n4)cc3)cc2)CC1 [1-[4-(4,6-di-3-oxa-8-azabicyclo[3.2.1]oct-8-ylpyrimidin-2-yl)phenyl]-3-[4-(4-methylpiperazin-1-yl)phenyl]urea]	0.8	≤ 0.8	1140	1.7
O=C(Nc1ccncc1)Nc1ccc(-c2nc(N3C4CCC3COC4)cc(N3C4CCC3COC4)n2)cc1 [1-[4-(4,6-di-3-oxa-8-azabicyclo[3.2.1]oct-8-ylpyrimidin-2-yl)phenyl]-3-pyridin-4-ylurea]	19	3	954	0.655
CN1CCN(C(=O)c2ccc(NC(=O)Nc3ccc(-c4nc(N5C6CCC5COC6)cc(N5C6CCC5COC6)n4)cc3)cc2)CC1 [1-[4-(4,6-di-3-oxa-8-azabicyclo[3.2.1]oct-8-ylpyrimidin-2-yl)phenyl]-3-{4-[(4-methylpiperazin-1-yl)carbonyl]phenyl}urea]	0.8	≤ 0.8	129	0.94
CN1CCN(Cc2ccc(NC(=O)Nc3ccc(-c4nc(N5C6CCC5COC6)cc(N5C6CCC5COC6)n4)cc3)cc2)CC1 [1-[4-(4,6-di-3-oxa-8-azabicyclo[3.2.1]oct-8-ylpyrimidin-2-yl)phenyl]-3-{4-[(4-methylpiperazin-1-yl)methyl]phenyl}urea]	4	≤ 0.8	1950	2.25
CCN(C(=O)Nc1ccc(N2CCN(C)CC2)cc1)c1ccc(-c2nc(N3CC4CCC(C3)O4)cc(N3CC4CCC(C3)O4)n2)cc1 [1-[4-(4,6-di-8-oxa-3-azabicyclo[3.2.1]oct-3-ylpyrimidin-2-yl)phenyl]-1-ethyl-3-[4-(4-methylpiperazin-1-yl)phenyl]urea]	7000	2800	2440	195
CCN(C(=O)Nc1ccncc1)c1ccc(-c2nc(N3CC4CCC(C3)O4)cc(N3CC4CCC(C3)O4)n2)cc1 [1-[4-(4,6-di-8-oxa-3-azabicyclo[3.2.1]oct-3-ylpyrimidin-2-yl)phenyl]-1-ethyl-3-pyridin-4-ylurea]	20000	5800	2260	200
CN1CCN(c2ccc(NC(=O)Nc3ccc(-c4nc(N5CC6CCC(C5)O6)cc(N5CC6CCC(C5)O6)n4)cc3)cc2)CC1 [1-[4-(4,6-di-8-oxa-3-azabicyclo[3.2.1]oct-3-ylpyrimidin-2-yl)phenyl]-3-[4-(4-methylpiperazin-1-yl)phenyl]urea]	19	2.4	328	2.55
CNC(=O)Nc1ccc(-c2nc(N3CC4CCC(C3)O4)cc(N3CC4CCC(C3)O4)n2)cc1 [1-[4-(4,6-di-8-oxa-3-azabicyclo[3.2.1]oct-3-ylpyrimidin-2-yl)phenyl]-3-methylurea]	1000	250	1080	7.05
O=C(Nc1ccncc1)Nc1ccc(-c2nc(N3CC4CCC(C3)O4)cc(N3CC4CCC(C3)O4)n2)cc1 [1-[4-(4,6-di-8-oxa-3-azabicyclo[3.2.1]oct-3-ylpyrimidin-2-yl)phenyl]-3-pyridin-4-ylurea]	50	28	125	0.56
CN1CCN(c2ccc(NC(=O)Nc3ccc(-c4nc(CS(C)(=O)=O)cc(N5CC6CCC(C5)O6)n4)cc3)cc2)CC1 [1-[4-(4-methylpiperazin-1-yl)phenyl]-3-(4-{4-[(methylsulfonyl)methyl]-6-(8-oxa-3-azabicyclo[3.2.1]oct-3-yl)pyrimidin-2-yl}phenyl)urea]	30	15	343	2.95
CN1CCN(c2ccc(NC(=O)Nc3ccc(-c4nc(N5CC6CCC(C5)O6)cc(C(F)(F)F)n4)cc3)cc2)CC1 [1-[4-(4-methylpiperazin-1-yl)phenyl]-3-{4-[4-(8-oxa-3-azabicyclo[3.2.1]oct-3-yl)-6-(trifluoromethyl)pyrimidin-2-yl]phenyl}urea]	190	50	440	11
